Laboratory results reported in patent US20120107903A1 (priority 2010, published 2012).

Target: Ralstonia pickettii 12D FAD dependent oxidoreductase (SEQ ID NO:9), variant QYY, S327Q/S366Y/A473Y (Ralstonia pickettii, UniProt A0ABM9ITV6, A473Y/S327Q/S366Y)
Type: biochemical
Conditions: read-out: Km (Mal)

SMILES: OC[C@H]1O[C@H](O[C@H]2[C@H](O)[C@@H](O)C(O)O[C@@H]2CO)[C@H](O)[C@@H](O)[C@@H]1O (stereo partly shown) [Mal, maltose]
- Km: > 100 mM
